In patent US20140072557A1, “MEDICINAL AGENT FOR SUPPRESSING MALIGNANT TUMOR METASTASIS” (priority 2011, published 2014):

Experiments:
[1] = system: cancer cells (A549, H460, H520, H358 cells); experiment: Combined effect of hANP and cisplatin on apoptosis induction in cancer cells; assay type: cell-based; settings: hANP 1 or 10 μM with cisplatin 1-30 μM, 48 hours
Method: As the cisplatin, CISPLATIN inj. “Maruko” (trade name, Nichi-Iko Pharmaceutical) was used.
Using a 96-well dish, the A549 cells were cultured at 1×10^4 cells/well. The next day, the culture medium was replaced with DMEM culture medium free from FBS. After 24-hours culture, the cells were divided into groups (control group, cisplatin single administration group, 1 μM hANP group, cisplatin+1 μM hANP group, 10 μM hANP group, and cisplatin+10 μM hANP group), and the following experiment was conducted.
To the culture medium, for the hANP addition groups, a hANP solution prepared so that the final concentration of hANP would be 1 or 10 μM was added, whereas for the control group and the cisplatin single administration group, the same amount of physiological saline was added. Further, for the cisplatin addition groups, a cisplatin solution prepared so that the final concentration of cisplatin would be 1, 5, 10, 20, or 30 μM was added (for the control group and the hANP single administration group, the same amount of physiological saline was added). […] 48 hours later, trypan blue staining was performed and the cell viability (number of living cells/total number of all cells) was determined with the use of an automatic cell counter Countess (registered trademark) (Invitrogen). […]

[2] = system: A549 cells; experiment: Migration ability, Boyden chamber assay, A549 cells; assay type: cell-based; settings: 1 μM hANP, TGF-β1 1 ng/mL, 20 hours
Method: Using a 6-well dish, the A549 cells were cultured at 1×10^5 cells/well, and the culture medium was replaced with DMEM culture medium free from FBS the next day. After 24 hours of culture, the cells were divided into 3 groups (the control group, the TGF-β1 group, and the TGF-β1+hANP group), and used in the following experiment.
To the culture medium for the TGF-β+hANP group, the hANP solution was added so that the final concentration of hANP might be 1 μM. For the control group and the TGF-β1 group, the same amount of physiological saline was added to the culture medium. After 2 hours from the addition, the Boyden chamber assay was performed as follows.
DMEM culture medium free from FBS for the control group, the same DMEM culture medium containing TGF-β1 (final concentration: 1 ng/mL) for the TGF-β1 group, and the same DMEM culture medium containing hANP (final concentration: 1 μM) and TGF-β1 (final concentration: 1 ng/mL) for the TGF-β1+hANP group were separately added to each well of a 6-well dish in an amount of 1.5 mL. On the surface of each liquid, a cell culture insert (8.0 μm pore size, made by Becton, Dickinson and Company) was placed, and onto each cell culture insert, 1.5 mL of a cell suspension of A549 cells of each group in FBS-free DMEM (hANP at final concentration of 1 μM was added for the TGF-β1+hANP group) was added and cultured. […]

CC[C@H](C)[C@@H]1NC(=O)[C@H](CCCNC(=N)N)NC(=O)[C@H](CC(=O)O)NC(=O)[C@H](CCSC)NC(=O)[C@H](CCCNC(=N)N)NC(=O)CNC(=O)CNC(=O)[C@H](Cc2ccccc2)NC(=O)[C@@H](NC(=O)[C@H](CO)NC(=O)[C@H](CO)NC(=O)[C@H](CCCNC(=N)N)NC(=O)[C@H](CCCNC(=N)N)NC(=O)[C@H](CC(C)C)NC(=O)[C@@H](N)CO)CSSC[C@@H](C(=O)N[C@@H](CC(N)=O)C(=O)N[C@@H](CO)C(=O)N[C@@H](Cc2ccccc2)C(=O)N[C@@H](CCCNC(=N)N)C(=O)N[C@@H](Cc2ccc(O)cc2)C(=O)O)NC(=O)CNC(=O)[C@H](CC(C)C)NC(=O)CNC(=O)[C@H](CO)NC(=O)[C@H](CCC(N)=O)NC(=O)[C@H](C)NC(=O)CNC1=O [hANP, carperitide]
apoptosis-inducing activity in combination with cisplatin [1]: enhanced | migration ability (cells on lower surface of insert) [2]: significantly suppressed
